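Cells were grown in 96-well plates and exposed to each compound for 48 hours at five concentrations; endpoints were interpolated linearly between bracketing concentrations, or set to the highest concentration if not reached. GI50 marks 50% less growth.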 Activity calls are given as the source filed them. Rule as the data show it: active = GI50 up to about 1.1 µM and inactive = higher.
Columns and labels:
Assay in all cases: NCI tumour cell line growth inhibition, 48 h
[1] = test system: NCI-H522
[2] = test system: Hs-578T
[3] = test system: M14
[4] = test system: SK-MEL-2
[5] = test system: RPMI-8226
[6] = test system: HCT-15
[7] = test system: UACC-257
[8] = test system: NCI-H23
[9] = test system: MDA-MB-435
[10] = test system: 786-0
[11] = test system: NCI-H460
[12] = test system: RXF 393
[13] = test system: MOLT-4
[14] = test system: SW-620
[15] = test system: HOP-62
[16] = test system: HCT-116
[17] = test system: SNB-19
[18] = test system: UO-31
[19] = test system: HOP-92
[20] = test system: U-251
[21] = test system: ACHN
[22] = test system: TK-10
[23] = test system: LOX IMVI
[24] = test system: DU-145
[25] = test system: SN12C
[26] = test system: OVCAR-8
[27] = test system: OVCAR-4
[28] = test system: BT-549
[29] = test system: IGROV-1
[30] = test system: OVCAR-3
[31] = test system: A498
[32] = test system: NCI-H226
[33] = test system: NCI/ADR-RES
[34] = test system: SF-295
[35] = test system: SF-268
[36] = test system: MDA-MB-231
[37] = test system: Malme-3M
[38] = test system: KM12
[39] = test system: PC-3
[40] = test system: SK-MEL-28
[41] = test system: HT-29
[42] = test system: SR
[43] = test system: OVCAR-5
[44] = test system: K562
[45] = test system: MDA-N
[46] = test system: EKVX
[47] = test system: UACC-62
[48] = test system: HCC 2998
[49] = test system: A549
[50] = test system: SK-MEL-5
[51] = test system: T47D
[52] = test system: SNB-75
[53] = test system: CCRF-CEM
[54] = test system: CAKI-1
[55] = test system: COLO 205
[56] = test system: MCF7
[57] = test system: SF-539
[58] = test system: HL-60
[59] = test system: SK-OV-3

Measured: GI50

NC(=O)NC(CC(=O)O)C(=O)O (configuration not stated)
inactive: [1] > 100 µM | [2] > 100 µM | [3] > 100 µM | [4] > 100 µM | [5] > 100 µM | [7] 93.3 µM | [8] > 100 µM | [9] > 100 µM | [10] > 100 µM | [11] > 100 µM | [12] > 100 µM | [13] > 100 µM | [14] > 100 µM | [15] > 100 µM | [16] > 100 µM | [17] > 100 µM | [18] > 100 µM | [19] > 100 µM | [20] > 100 µM | [21] > 100 µM | [22] > 100 µM | [23] > 100 µM | [24] > 100 µM | [25] > 100 µM | [26] > 100 µM | [27] > 100 µM | [28] > 100 µM | [29] > 100 µM | [30] > 100 µM | [31] > 100 µM | [32] > 100 µM | [33] > 100 µM | [34] > 100 µM | [35] > 100 µM | [36] > 100 µM | [37] > 100 µM | [38] > 100 µM | [39] > 100 µM | [40] > 100 µM | [41] > 100 µM | [42] > 100 µM | [43] > 100 µM | [44] > 100 µM | [45] > 100 µM | [46] > 100 µM | [47] > 100 µM | [48] > 100 µM | [49] > 100 µM | [50] > 100 µM | [51] > 100 µM | [52] > 100 µM | [53] > 100 µM | [54] > 100 µM
> 100 µM: [6]

CN(C)/C=N/S(=O)(=O)c1nn2c(C=O)c(-c3ccc(-c4ccccc4)cc3)nc2s1
active: [1] 0.385 µM | [3] 0.904 µM | [5] 0.83 µM | [10] 0.927 µM | [13] 0.283 µM | [14] 0.724 µM | [16] 1 µM | [23] 0.753 µM | [28] 0.83 µM | [56] 0.838 µM | [58] 0.141 µM | [41] 0.347 µM | [42] 0.49 µM | [44] 0.316 µM | [53] 0.145 µM
2.26 µM: [6]
inactive: [2] 3.09 µM | [55] 2.56 µM | [4] 2.69 µM | [7] 2.97 µM | [8] 1.78 µM | [9] 1.69 µM | [11] 5.51 µM | [12] 1.71 µM | [15] 8.61 µM | [17] 11.9 µM | [18] 1.4 µM | [19] 2.65 µM | [20] 2.01 µM | [21] 1.57 µM | [22] 1.83 µM | [24] 2.4 µM | [25] 1.97 µM | [26] 5.28 µM | [27] 1.96 µM | [29] 1.24 µM | [30] 1.92 µM | [31] 21.3 µM | [57] 2.54 µM | [32] 13.3 µM | [33] 8.57 µM | [34] 14.4 µM | [35] 2.1 µM | [36] 2.99 µM | [37] 1.32 µM | [38] 2.48 µM | [39] 2 µM | [40] 1.98 µM | [43] 6.89 µM | [46] 5.89 µM | [59] 15.1 µM | [47] 2.34 µM | [48] 6 µM | [49] 11.5 µM | [50] 1.61 µM | [51] 1.95 µM | [52] 4.12 µM | [54] 1.31 µM

Reference: ChEMBL document CHEMBL1201862, “PubChem BioAssay data set” (2004)
